Measurements published in PubChem BioAssay AID248 (DTP/NCI, 2004).
Where “and” joins values, the source holds several entries; their conditions need not be identical. Equal values may be shown once. Toxic doses and inconclusive results are not listed.

System: L1210 leukemia ip in BDF1 mice, survival T/C
Assay: NCI In Vivo Anticancer Drug Screen. Data for tumor model L1210 Leukemia (intraperitoneal) in B6D2F1 (BDF1) mice
Conditions: endpoint: mean survival time, higher = longer survival
Outline: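 Transplanted-tumor mice were given test agent; controls received vehicle only. Survival readings from the two groups were divided (treated over control).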

[1] = dose: 100.0 mg/kg/injection, schedule: Q01DX009 (ip), vehicle: saline with Tween-80
[2] = dose: 100.0 mg/kg/injection, schedule: Q04DX003 (ip), vehicle: saline with Tween-80
[3] = dose: 200.0 mg/kg/injection, schedule: Q01DX009 (ip), vehicle: saline with Tween-80
[4] = dose: 200.0 mg/kg/injection, schedule: Q04DX003 (ip), vehicle: saline with Tween-80
[5] = dose: 400.0 mg/kg/injection, schedule: Q01DX009 (ip), vehicle: saline with Tween-80
[6] = dose: 400.0 mg/kg/injection, schedule: Q04DX003 (ip), vehicle: saline with Tween-80
[7] = dose: 75.0 mg/kg/injection, schedule: Q01DX001 (ip), vehicle: other
[8] = dose: 150.0 mg/kg/injection, schedule: Q01DX001 (ip), vehicle: other
[9] = dose: 300.0 mg/kg/injection, schedule: Q01DX001 (ip), vehicle: other
[10] = dose: 100.0 mg/kg/injection, schedule: Q01DX001 (ip), vehicle: other
[11] = dose: 200.0 mg/kg/injection, schedule: Q01DX001 (ip), vehicle: other
[12] = dose: 400.0 mg/kg/injection, schedule: Q01DX001 (ip), vehicle: other
[13] = dose: 100.0 mg/kg/injection, schedule: Q01DX001 (ip), vehicle: carboxymethylcellulose (CMC)
[14] = dose: 200.0 mg/kg/injection, schedule: Q01DX001 (ip), vehicle: carboxymethylcellulose (CMC)
[15] = dose: 400.0 mg/kg/injection, schedule: Q01DX001 (ip), vehicle: carboxymethylcellulose (CMC)
[16] = dose: 100.0 mg/kg/injection, schedule: Q01DX001 (ip), vehicle: Klucel (hydroxypropylcellulose) (HPC)
[17] = dose: 100.0 mg/kg/injection, schedule: Q01DX009 (ip), vehicle: Klucel (hydroxypropylcellulose) (HPC)
[18] = dose: 200.0 mg/kg/injection, schedule: Q01DX009 (ip), vehicle: Klucel (hydroxypropylcellulose) (HPC)
[19] = dose: 400.0 mg/kg/injection, schedule: Q01DX009 (ip), vehicle: Klucel (hydroxypropylcellulose) (HPC)
[20] = dose: 25.0 mg/kg/injection, schedule: Q01DX009 (ip), vehicle: Klucel (hydroxypropylcellulose) (HPC)
[21] = dose: 50.0 mg/kg/injection, schedule: Q01DX009 (ip), vehicle: Klucel (hydroxypropylcellulose) (HPC)
[22] = dose: 100.0 mg/kg/injection, schedule: Q04DX003 (ip), vehicle: carboxymethylcellulose (CMC)
[23] = dose: 200.0 mg/kg/injection, schedule: Q04DX003 (ip), vehicle: carboxymethylcellulose (CMC)
[24] = dose: 400.0 mg/kg/injection, schedule: Q04DX003 (ip), vehicle: carboxymethylcellulose (CMC)
[25] = dose: 100.0 mg/kg/injection, schedule: Q01DX001 (ip), vehicle: saline
[26] = dose: 200.0 mg/kg/injection, schedule: Q01DX001 (ip), vehicle: saline
[27] = dose: 400.0 mg/kg/injection, schedule: Q01DX001 (ip), vehicle: saline

For `COc1ccc(NC(=O)CCC(=O)O)cc1`, the T/C (dose: 50.0 mg/kg/injection, schedule: Q01DX009 (ip), vehicle: saline with Tween-80) was 110 % of control, the T/C (dose: 50.0 mg/kg/injection, schedule: Q04DX003 (ip), vehicle: saline with Tween-80) was 96 % of control and the T/C [1] was 108 % of control. The T/C [2] was 100 % of control, the T/C [3] was 100 % of control and the T/C [4] was 100 % of control. For the same compound, the T/C [5] was 107 % of control and the T/C [6] was 94 % of control.
In the case of `CSc1ccc(-c2nc3ncnc(N)c3[nH]2)cc1`, the T/C (dose: 25.0 mg/kg/injection, schedule: Q01DX001 (ip), vehicle: gum acacia) is reported as 95 % of control and the T/C (dose: 50.0 mg/kg/injection, schedule: Q01DX001 (ip), vehicle: gum acacia) is reported as 93 % of control.
`CCOC(=O)N[n+]1ccc(C)cc1` was tested, and the T/C [7] was 101 % of control, the T/C [8] was 101 % of control and the T/C [9] was 105 % of control.
For `CCCCCCC(/C=N\Nc1nnc(N/N=C\C(=C\c2ccccc2)CCCCCC)c2ccccc12)=C/c1ccccc1`, the T/C (dose: 50.0 mg/kg/injection, schedule: Q01DX001 (ip), vehicle: other) was 109 % of control, the T/C [10] was 103 % of control and the T/C [11] was 111 % of control. The T/C [12] was 105 % of control.
In the case of `CSc1cc2c(cc1N)Cc1ccccc1-2`, the T/C [13] is reported as 98 % of control, the T/C [14] is reported as 104 % of control and the T/C [15] is reported as 115 % of control.
In the case of `COc1ccccc1/C(=C/c1ccc([N+](=O)[O-])cc1)C(=O)O`, the T/C [16] is reported as 100 % of control, the T/C [17] is reported as 97 % of control and 100 % of control and the T/C (dose: 100.0 mg/kg/injection, schedule: Q04DX002 (ip), vehicle: Klucel (hydroxypropylcellulose) (HPC)) is reported as 101 % of control and 107 % of control. The T/C (dose: 100.0 mg/kg/injection, schedule: Q04DX003 (ip), vehicle: Klucel (hydroxypropylcellulose) (HPC)) was 97 % of control, the T/C (dose: 200.0 mg/kg/injection, schedule: Q01DX001 (ip), vehicle: Klucel (hydroxypropylcellulose) (HPC)) was 94 % of control and the T/C [18] was 95 % of control and 103 % of control. The T/C (dose: 200.0 mg/kg/injection, schedule: Q04DX002 (ip), vehicle: Klucel (hydroxypropylcellulose) (HPC)) was 102 % of control and 103 % of control, the T/C (dose: 200.0 mg/kg/injection, schedule: Q04DX003 (ip), vehicle: Klucel (hydroxypropylcellulose) (HPC)) was 100 % of control and the T/C (dose: 400.0 mg/kg/injection, schedule: Q01DX001 (ip), vehicle: Klucel (hydroxypropylcellulose) (HPC)) was 94 % of control. For the same compound, the T/C [19] was 100 % of control, the T/C (dose: 400.0 mg/kg/injection, schedule: Q04DX002 (ip), vehicle: Klucel (hydroxypropylcellulose) (HPC)) was 97 % of control and 104 % of control and the T/C (dose: 400.0 mg/kg/injection, schedule: Q04DX003 (ip), vehicle: Klucel (hydroxypropylcellulose) (HPC)) was 101 % of control.
`CC(=O)CC(C[N+](=O)[O-])c1ccccc1` (centres undefined) was tested, and the T/C [17] was 100 % of control, the T/C [18] was 100 % of control and the T/C [19] was 100 % of control.
With `O=C(CI)Nc1ccc(Cl)c(Cl)c1` the T/C [20] was 95 % of control, the T/C [21] was 94 % of control and the T/C [17] was 93 % of control.
`CCCCCCCCCCCCCC(=O)N(CCCC)CCCC` was tested, and the T/C (dose: 50.0 mg/kg/injection, schedule: Q01DX009 (ip), vehicle: carboxymethylcellulose (CMC)) was 98 % of control and 90 % of control, the T/C [13] was 94 % of control and the T/C [22] was 95 % of control. The T/C [14] was 93 % of control, the T/C [23] was 92 % of control and the T/C [15] was 98 % of control. The T/C (dose: 400.0 mg/kg/injection, schedule: Q01DX009 (ip), vehicle: carboxymethylcellulose (CMC)) was 95 % of control and 104 % of control and the T/C [24] was 96 % of control.
For `CCCCCCCCNNC(=O)c1ccccc1`, the T/C [13] was 95 % of control, the T/C [14] was 97 % of control and the T/C [15] was 92 % of control.
For `Cc1cn(C2CCCCC2)c(=O)[nH]c1=O`, the T/C (dose: 25.0 mg/kg/injection, schedule: Q01DX Z (ip), vehicle: methylcellulose (MC)) was 89 % of control and the T/C (dose: 50.0 mg/kg/injection, schedule: Q01DX Z (ip), vehicle: methylcellulose (MC)) was 92 % of control.
`CC(=O)OCC1OC(OC(C)=O)C(NC(=O)NCCCl)C(OC(C)=O)C1OC(C)=O` (centres undefined) was tested, and the T/C [10] was 97 % of control, the T/C [11] was 101 % of control and the T/C [12] was 97 % of control.
`CCC(CC)(CC)C(OC(=O)c1ccccc1C(=O)O)c1ccccc1` (centres undefined) was tested, and the T/C (dose: 50.0 mg/kg/injection, schedule: Q01DX001 (ip), vehicle: saline) was 95 % of control, the T/C [25] was 95 % of control and the T/C [26] was 97 % of control. For the same compound, the T/C [27] was 88 % of control.
In the case of `CCCN(CCC)S(=O)(=O)c1ccc(NC(=O)OC(c2ccccc2)(c2ccccc2)c2ccccc2)cc1`, the T/C [25] is reported as 100 % of control, the T/C [26] is reported as 97 % of control and the T/C [27] is reported as 94 % of control.
With `COc1cccc2c1CC/C(=C\c1cccnc1)C2=O` the T/C [22] was 103 % of control, the T/C [23] was 102 % of control and the T/C [24] was 95 % of control.
For `O=C(NCCCCNC(=O)Nc1cccc(C2=NCCCN2)c1)Nc1cccc(C2=NCCCN2)c1`, the T/C (dose: 0.65 mg/kg/injection, schedule: Q01DX Z (ip), vehicle: carboxymethylcellulose (CMC)) was 97 % of control and the T/C (dose: 1.3 mg/kg/injection, schedule: Q01DX Z (ip), vehicle: carboxymethylcellulose (CMC)) was 97 % of control.
For `[Cl][Sn]([CH2]c1ccccc1)([CH2]c1ccccc1)[CH2]c1ccccc1`, the T/C (dose: 0.39 mg/kg/injection, schedule: Q04DX002 (ip), vehicle: saline with Tween-80) was 94 % of control, the T/C (dose: 0.78 mg/kg/injection, schedule: Q04DX002 (ip), vehicle: saline with Tween-80) was 106 % of control and the T/C (dose: 1.56 mg/kg/injection, schedule: Q04DX002 (ip), vehicle: saline with Tween-80) was 108 % of control. The T/C (dose: 3.13 mg/kg/injection, schedule: Q04DX002 (ip), vehicle: saline with Tween-80) was 108 % of control.
With `O=c1[nH]cnc2c1nnn2C1OC(CO)C(O)C1O` (centres undefined) the T/C (dose: 90.0 mg/kg/injection, schedule: Q01DX009 (ip), vehicle: saline) was 155 % of control and 160 % of control and the T/C (dose: 135.0 mg/kg/injection, schedule: Q01DX009 (ip), vehicle: saline) was 163 % of control.
For `O=c1c(Br)cocc1Br`, the T/C [1] was 92 % of control, the T/C [3] was 97 % of control and the T/C [5] was 102 % of control.
In the case of `CC1(C)C2CCC(CC(=O)O)C1C2` (centres undefined), the T/C [2] is reported as 101 % of control and the T/C [4] is reported as 101 % of control.
For `CC(=O)OC1=C(C)CCCC(C)(C)C1`, the T/C [7] was 92 % of control, the T/C [8] was 92 % of control and the T/C [9] was 97 % of control.
`CC1=C2CCCC3(OCCO3)C2(C)CCC1=O` (centres undefined) was tested, and the T/C (dose: 100.0 mg/kg/injection, schedule: Q04DX002 (ip), vehicle: other) was 98 % of control, the T/C (dose: 200.0 mg/kg/injection, schedule: Q04DX002 (ip), vehicle: other) was 109 % of control and the T/C (dose: 400.0 mg/kg/injection, schedule: Q04DX002 (ip), vehicle: other) was 102 % of control.
`CCc1cccc(CC)c1N1C(=O)C=CC1=O` was tested, and the T/C (dose: 1.56 mg/kg/injection, schedule: Q01DX009 (ip), vehicle: other) was 102 % of control, the T/C (dose: 3.13 mg/kg/injection, schedule: Q01DX009 (ip), vehicle: other) was 105 % of control and the T/C (dose: 3.13 mg/kg/injection, schedule: Q04DX002 (ip), vehicle: other) was 87 % of control. For the same compound, the T/C (dose: 6.25 mg/kg/injection, schedule: Q01DX009 (ip), vehicle: other) was 105 % of control, the T/C (dose: 6.25 mg/kg/injection, schedule: Q04DX002 (ip), vehicle: other) was 93 % of control and the T/C (dose: 12.5 mg/kg/injection, schedule: Q04DX002 (ip), vehicle: other) was 107 % of control.
With `BrCC1=CC(c2ccccc2)(c2ccccc2)c2ccccc21` the T/C [2] was 89 % of control, the T/C [4] was 89 % of control and the T/C [6] was 87 % of control.
With `C#CCOC1CCCCO1` (centres undefined) the T/C (dose: 100.0 mg/kg/injection, schedule: Q04DX003 (ip), vehicle: saline) was 104 % of control.
For `Cc1c(Cl)cccc1NC(=O)Oc1ccc(F)cc1Cl`, the T/C [17] was 94 % of control and the T/C [18] was 95 % of control.
With `CCc1cnc(N)nc1N` the T/C [20] was 107 % of control, the T/C [21] was 101 % of control and the T/C [16] was 107 % of control. For the same compound, the T/C [17] was 104 % of control.
